ChEMBL document CHEMBL1149991, “Benzofuran based angiotensin II antagonists related to GR117289: enhancement of potency in vitro and oral activity” (Bioorg Med Chem Lett, 1993)

Target: T1, Type-1 angiotensin II receptor (Oryctolagus cuniculus) (UniProt P34976)
T1 sequence (whole entry): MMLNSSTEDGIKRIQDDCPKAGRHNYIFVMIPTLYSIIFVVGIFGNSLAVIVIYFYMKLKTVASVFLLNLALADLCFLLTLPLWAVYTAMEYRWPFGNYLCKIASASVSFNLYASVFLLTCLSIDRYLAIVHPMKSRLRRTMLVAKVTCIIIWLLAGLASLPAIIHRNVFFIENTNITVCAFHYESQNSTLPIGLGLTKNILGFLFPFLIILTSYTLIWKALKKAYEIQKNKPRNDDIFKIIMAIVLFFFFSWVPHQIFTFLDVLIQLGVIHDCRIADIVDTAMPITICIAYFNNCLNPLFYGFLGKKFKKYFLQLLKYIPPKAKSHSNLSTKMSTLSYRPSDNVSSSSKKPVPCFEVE
Assay: In vitro for its antagonistic activity against angiotensin II type 1 receptor in Rabbit Aorta
Assay type: functional, tissue-based

pKB	Structure (SMILES)
9.8	CCCCc1nc(Cl)c(CC(=O)O)n1Cc1ccc2oc(-c3ccccc3-c3nn[nH]n3)c(Br)c2c1
8.8	CCCCc1nc(Cl)c(C(=O)O)n1Cc1ccc2oc(-c3ccccc3C(=O)Nc3nn[nH]n3)c(Br)c2c1
10.5	CCCCc1nc(Cl)c(C(=O)O)n1Cc1ccc2oc(-c3ccccc3-c3nn[nH]n3)c(Cl)c2c1
9.2	CCCCc1nc(Cl)c(C(=O)NC)n1Cc1ccc2oc(-c3ccccc3-c3nn[nH]n3)c(Br)c2c1
7.2	CCCCc1nc(Cl)c(C(=O)O)n1Cc1ccc2oc(-c3ccccc3C(N)=O)c(Br)c2c1
8.8	CCCCc1nc(Cl)c(C(=O)N(C)C)n1Cc1ccc2oc(-c3ccccc3-c3nn[nH]n3)c(Br)c2c1
8.3	CCCCc1nc(Cl)c(C(=O)OCC)n1Cc1ccc2oc(-c3ccccc3-c3nn[nH]n3)c(Br)c2c1
9	CCCCc1nc(Cl)c(C(N)=O)n1Cc1ccc2oc(-c3ccccc3-c3nn[nH]n3)c(Br)c2c1
7.8	CCCCc1nc(Cl)c(C(=O)O)n1Cc1ccc2oc(-c3ccccc3C(=O)OCC)c(Br)c2c1

The next lines start with the compound.

Structure (SMILES)	pKB
CCCCc1nc(Cl)c(C(=O)O)n1Cc1ccc2oc(-c3ccccc3-c3nn[nH]n3)c(C(F)(F)F)c2c1	10
CCCCc1nc(Cl)c(C(=O)O)n1Cc1ccc2oc(-c3ccccc3-c3nnnn3C)c(Br)c2c1	7.3
CCCCc1nc(Cl)c(C(=O)O)n1Cc1ccc2oc(-c3ccccc3-c3nnn(C)n3)c(Br)c2c1	6.4
CCCCc1nc(Cl)c(C(=O)O)n1Cc1ccc2oc(-c3ccccc3-c3nn[nH]n3)c(C(C)(C)C)c2c1	8.3
CCCCc1nc(Cl)c(C(=O)O)n1Cc1ccc2oc(-c3ccccc3C#N)c(Br)c2c1	< 6
CCCCc1nc(Cl)c(C(=O)O)n1Cc1ccc2oc(-c3ccccc3-c3nn[nH]n3)c(OC)c2c1	9.6
CCCCc1nc(Cl)c(C(=O)O)n1Cc1ccc2oc(-c3ccccc3NS(=O)(=O)C(F)(F)F)c(Br)c2c1	7.8
CCCCc1nc(Cl)c(CNC(N)=O)n1Cc1ccc2oc(-c3ccccc3-c3nn[nH]n3)c(Br)c2c1	8.8
